These are literature values, as cited in patent US20050042178A1, “Microparticles containing the CGRP-antagonist 1-[N2-[3,5-dibrom-N-[[4-(3,4-dihydro-2(1H)-oxoquinazoline-3-yl)-1-piperidinyl]carbonyl]-D-tyrosyl]-L-lysyl]-4-(4-pyridinyl)-piperazine, process for preparing and the use thereof as inhalation powder” (Boehringer Ingelheim International GmbH, priority 2003, published 2005).

For this data set the following is noted: conventional formulations.

In the case of `NCCCC[C@H](NC(=O)[C@@H](Cc1cc(Br)c(O)c(Br)c1)NC(=O)N1CCC(N2Cc3ccccc3NC2=O)CC1)C(=O)N1CCN(c2ccncc2)CC1` [A, 1-[N^2-[3,5-dibromo-N-[[4-(3,4-dihydro-2(1H)-oxoquinazolin-3-yl)-1-piperidinyl]carbonyl]-D-tyrosyl]-L-lysyl]-4-(4-pyridinyl)-piperazine], the oral bioavailability entry is recorded as “very limited”.
